# In patent publication EP1140809B1, “NEW BIPHENYL AND BIPHENYL-ANALOGOUS COMPOUNDS AS INTEGRIN ANTAGONISTS” (Bayer HealthCare AG, priority 1998, dated 2000):
# Columns and labels:
# [1] = biological target: T1, αvβ3 receptor (Homo sapiens, UniProt P05106+P06756); experiment: Binding to the αvβ3 receptor (echistatin displacement, WGA SPA beads); conditions: αvβ3 purified from human A375 cells, labelled echistatin, read-out: avb3 IC50
# T1 construct: αvβ3 from human A375 cells were purified according to a procedure described by Wong et al; endogenous in cells; host or cells: human A375 cells; receptor purified from the cells, detergent-solubilised
# T1 sequence (P06756 31-889 limits assumed): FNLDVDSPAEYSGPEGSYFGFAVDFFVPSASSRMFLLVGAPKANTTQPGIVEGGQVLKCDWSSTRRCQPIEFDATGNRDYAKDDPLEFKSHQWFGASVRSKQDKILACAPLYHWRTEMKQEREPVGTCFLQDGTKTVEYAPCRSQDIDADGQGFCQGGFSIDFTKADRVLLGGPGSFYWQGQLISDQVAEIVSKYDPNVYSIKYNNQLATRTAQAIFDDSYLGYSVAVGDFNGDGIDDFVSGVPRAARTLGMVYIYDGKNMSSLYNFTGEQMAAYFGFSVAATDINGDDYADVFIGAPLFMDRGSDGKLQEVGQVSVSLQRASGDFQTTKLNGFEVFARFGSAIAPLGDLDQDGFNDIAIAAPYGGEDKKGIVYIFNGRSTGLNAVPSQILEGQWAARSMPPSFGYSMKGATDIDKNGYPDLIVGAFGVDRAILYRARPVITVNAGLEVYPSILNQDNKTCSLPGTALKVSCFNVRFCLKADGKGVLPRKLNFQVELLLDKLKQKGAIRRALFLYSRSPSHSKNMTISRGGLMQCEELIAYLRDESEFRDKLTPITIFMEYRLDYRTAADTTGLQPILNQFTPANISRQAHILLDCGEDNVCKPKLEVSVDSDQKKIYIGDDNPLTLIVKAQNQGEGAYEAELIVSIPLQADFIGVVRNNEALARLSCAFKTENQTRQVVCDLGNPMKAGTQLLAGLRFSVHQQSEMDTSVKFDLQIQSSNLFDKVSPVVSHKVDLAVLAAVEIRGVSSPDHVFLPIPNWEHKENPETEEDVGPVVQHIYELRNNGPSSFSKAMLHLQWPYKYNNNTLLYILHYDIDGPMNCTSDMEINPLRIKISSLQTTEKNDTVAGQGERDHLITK
# T1 sequence (P06756 891-1048 partner limits assumed): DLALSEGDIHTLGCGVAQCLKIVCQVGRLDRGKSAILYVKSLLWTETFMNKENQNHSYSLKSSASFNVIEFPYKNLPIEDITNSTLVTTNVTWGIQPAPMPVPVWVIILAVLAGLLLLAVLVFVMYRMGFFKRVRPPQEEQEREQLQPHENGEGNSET
# T1 sequence (P05106 27-788): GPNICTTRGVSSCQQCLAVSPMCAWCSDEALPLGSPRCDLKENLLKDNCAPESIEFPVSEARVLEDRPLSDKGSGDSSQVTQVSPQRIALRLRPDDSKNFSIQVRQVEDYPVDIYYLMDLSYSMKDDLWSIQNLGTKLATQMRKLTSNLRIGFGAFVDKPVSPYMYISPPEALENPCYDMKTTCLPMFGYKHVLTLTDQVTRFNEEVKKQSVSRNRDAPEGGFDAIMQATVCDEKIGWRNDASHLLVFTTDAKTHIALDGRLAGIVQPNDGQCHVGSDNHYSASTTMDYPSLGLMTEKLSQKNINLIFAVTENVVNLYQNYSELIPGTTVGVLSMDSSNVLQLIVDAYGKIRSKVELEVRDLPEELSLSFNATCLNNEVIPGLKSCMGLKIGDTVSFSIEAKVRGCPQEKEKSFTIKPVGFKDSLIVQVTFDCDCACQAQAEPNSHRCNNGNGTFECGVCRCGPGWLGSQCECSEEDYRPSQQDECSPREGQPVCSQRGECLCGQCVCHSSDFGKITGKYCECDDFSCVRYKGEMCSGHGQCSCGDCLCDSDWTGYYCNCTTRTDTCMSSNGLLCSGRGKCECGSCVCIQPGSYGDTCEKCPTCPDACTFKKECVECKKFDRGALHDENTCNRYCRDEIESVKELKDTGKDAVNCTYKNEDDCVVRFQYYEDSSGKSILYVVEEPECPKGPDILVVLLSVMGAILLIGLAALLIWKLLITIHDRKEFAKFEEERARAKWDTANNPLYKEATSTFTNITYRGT
# Description: a) Binding to the αvβ3 receptor
# 10 µl αvβ3 (5 ng) in TBS pH 7.6, 2 mM CaCl2, 1mM MgCl2, 1% n/octylglucopyranoside; 10 µl of the substance to be tested in TBS pH 7.6, 0.1 % dimethylsulfoxide (DMSO), and 45 µl TBS pH 7.6, 2 mM CaCl2, 1 mM MgCl2, 1 mM MnCl2 were each incubated for 1 h at room temperature.
# [2] = tested on: Smooth muscle cells; experiment: Smooth muscle cell (SMC) migration test (horizontal, vitronectin-coated plates); type: cell-based, humans or rats; conditions: migration on vitronectin, 24 hours at 37°C; human or rat cells not specified
# Description: b) Smooth muscle cell (SMC) migration test
# Smooth muscle cells from humans or rats were used. The migration of the cells was determined in a horizontal measuring arrangement (Falcon).
# The horizontal migration was determined in 6-well plates coated with vitronectin (1 µg/cm^2). The cells were suspended in a medium ([…]-rat smooth muscle cells or MCDB 131 with 0.2% BSA-human smooth muscle cells), inoculated and allowed to grow to confluence. Half of the smooth muscle cell lawn was then scraped off, and the cells were treated with different concentrations of the test compounds. The mixtures were incubated for 24 hours at 37°C in the presence of 5% CO2. After the incubation, the smooth muscle cell migration was determined by measurement of the migration distance and the cell density of the migrated cells.
# [3] = biological target: αvβ5 receptor (Homo sapiens, UniProt P06756+P18084); conditions: disclosed in WO 98/00395; cited from earlier work
# Chain of αvβ5 receptor (P06756 31-889 limits assumed): as the sequence (P06756 31-889 limits assumed) above
# Chain of αvβ5 receptor (P06756 891-1048 partner limits assumed): as the sequence (P06756 891-1048 partner limits assumed) above
# Chain of αvβ5 receptor (P18084 24-799): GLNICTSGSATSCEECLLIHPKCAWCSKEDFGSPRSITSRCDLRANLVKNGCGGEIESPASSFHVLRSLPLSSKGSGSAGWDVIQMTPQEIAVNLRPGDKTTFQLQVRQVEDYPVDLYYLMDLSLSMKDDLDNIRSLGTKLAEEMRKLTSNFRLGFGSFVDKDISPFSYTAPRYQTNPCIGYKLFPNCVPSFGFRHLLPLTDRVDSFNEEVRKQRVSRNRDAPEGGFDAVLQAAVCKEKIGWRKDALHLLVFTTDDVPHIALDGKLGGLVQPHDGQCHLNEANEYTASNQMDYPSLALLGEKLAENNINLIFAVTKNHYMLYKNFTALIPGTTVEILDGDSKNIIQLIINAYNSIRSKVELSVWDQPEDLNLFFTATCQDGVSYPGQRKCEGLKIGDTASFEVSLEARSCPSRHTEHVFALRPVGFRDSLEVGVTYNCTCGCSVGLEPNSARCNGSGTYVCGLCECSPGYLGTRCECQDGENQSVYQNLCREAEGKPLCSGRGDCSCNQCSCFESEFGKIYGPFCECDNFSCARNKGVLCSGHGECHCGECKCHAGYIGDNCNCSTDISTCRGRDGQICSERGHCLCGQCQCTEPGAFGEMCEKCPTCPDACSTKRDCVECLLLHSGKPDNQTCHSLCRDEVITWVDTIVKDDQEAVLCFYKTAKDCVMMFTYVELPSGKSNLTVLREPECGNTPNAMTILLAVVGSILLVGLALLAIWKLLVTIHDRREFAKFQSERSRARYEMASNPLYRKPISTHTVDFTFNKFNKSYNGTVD
Structure (SMILES),IC50 [1] [nM],IC50 [2] [nM],IC50 [3] [nM]
"Cc1cc(C)c(S(=O)(=O)NC(Cc2ccc(-c3cccc(NC(=O)NCc4cccnc4)c3)cc2)C(=O)O)c(C)c1 (racemic) [Example 1.5, (2R,S)-3-[3'-(3-(Pyridin-3-yl-methylureido)-biphenyl-4-yl]-2-[2,4,6-trimethylbenzenesulfonylamino]-propanoic acid]",5,480,–
"Cc1cc(C)c(S(=O)(=O)NC(Cc2ccc(-c3cccc(NC4=NCCN4)c3)cc2)C(=O)O)c(C)c1 (racemic) [Example 7.1, (2R,S)-3-[3'-(4,5-Dihydro-1H-Imidazol-2-ylamino)-biphenyl-4-yl]-2-(2,4,6-trimethyl-benzenesulfonylamino)-propanoic acid]",1.2,–,–
CC1(C)C2CCC1(CS(=O)(=O)NC(Cc1ccc(OCCCC(=O)NC(=N)N)cc1)C(=O)O)C(=O)C2 (centres unmarked) [(I)],–,–,0.16
"Cc1cc(C)c(S(=O)(=O)N[C@@H](Cc2ccc(-c3cccc(NC(=O)NC4CC4)c3)cc2)C(=O)O)c(C)c1 [Example 1.13, (2S)-3-[3'-(3-Cyclopropyl-ureido)-biphenyl-4-yl]-2-(2,4,6-trimethyl-benzenesulfonylamino)-propanoic acid]",1.2,390,–

# The next lines start with results.
IC50 [1] [nM],IC50 [2] [nM],Structure (SMILES),IC50 [3] [nM]
–,300,"O=C(O)CC(NS(=O)(=O)c1cccc(-c2cccc(CNCc3nc4ccccc4[nH]3)c2)c1)c1ccccc1 (racemic) [Example 8.1, (3R,S)-3-(3'-{[(1H-Benzoimidazol-2-ylmethyl)-amino]-methyl}-biphenyl-3-sulfonylamino)-3-phenyl-propanoic acid]",–
–,3 to 40,"CC1(C)C2CCC1(CS(=O)(=O)NC(Cc1ccc(-c3cccc(NC(=O)Nc4cccnc4)c3)cc1)C(=O)O)C(=O)C2 [Example 1.73, (2S)-3-[3'-(3-Pyridin-3-yl-ureido)-biphenyl-4-yl]-2-[(S)-campher-10-yl-sulfonylamino]-propanoic acid]",–
33,300,"O=C(O)CNS(=O)(=O)c1cccc(-c2cccc(NC(=O)NCc3ccccn3)c2)c1 [Example 4.1, [3'-(3-Pyridin-2-ylmethyl-ureido)-biphenyl-3-sulfonylamino]-acetic acid]",–
9,35 to 80,"Cc1cc(C)c(S(=O)(=O)N[C@@H](Cc2ccc(-c3cccc(CNc4ccccn4)c3)cc2)C(=O)O)c(C)c1 [Example 18.1.3, (2S)-2-Mesitylsulfonylamino-3-{3'-[(2-pyridinylamino)-methyl][1,1'-biphenyl]-4-yl}-propanoic acid]",–
1,80,"Cc1cc(C)c(S(=O)(=O)N[C@@H](Cc2ccc(-c3cccc(NC(=O)c4ncc[nH]4)c3)cc2)C(=O)O)c(C)c1 [Example 19.1.2, (2S)-3-{3'-[(1H-imidazol-2-ylcarbonyl)amino][1,1'-biphenyl]-4-yl}-2-[(mesitylsulfonyl)amino]-propanoic acid]",–
